From publication PMC5666843, “Seco-B-Ring Steroidal Dienynes with Aromatic D Ring: Design, Synthesis and Biological Evaluation” (International Journal of Molecular Sciences, 2017) come the findings set out here.

pIC50: −log10 of the molar value.

This experiment addresses T1, recombinant human VDR (hVDR, vitamin D receptor) (Homo sapiens, UniProt P11473).
T1 sequence (P11473 1-427): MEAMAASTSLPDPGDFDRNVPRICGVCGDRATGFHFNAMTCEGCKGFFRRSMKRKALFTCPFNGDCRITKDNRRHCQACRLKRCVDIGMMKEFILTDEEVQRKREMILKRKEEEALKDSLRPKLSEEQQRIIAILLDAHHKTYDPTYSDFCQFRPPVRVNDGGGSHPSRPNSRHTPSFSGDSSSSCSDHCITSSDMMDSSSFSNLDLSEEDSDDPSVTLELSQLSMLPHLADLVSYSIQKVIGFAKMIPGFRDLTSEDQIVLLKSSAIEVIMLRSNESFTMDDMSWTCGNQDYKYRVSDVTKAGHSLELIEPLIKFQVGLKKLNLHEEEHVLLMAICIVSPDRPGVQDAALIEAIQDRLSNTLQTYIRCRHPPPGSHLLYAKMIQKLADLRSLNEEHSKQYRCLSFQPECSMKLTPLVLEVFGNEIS
In words: fluorescence polarization competition assay (PolarScreen). The format is binding. The following applies: read-out: 6. The text has this: fluorescence polarization competition assay (PolarScreen) on recombinant human VDR (hVDR, vitamin D receptor)
For orientation: Fluorescence polarisation rises when a labelled molecule tumbles more slowly, as on binding a larger partner.

Consider `C=C1[C@H](O)C(C)=C(C#CC2=CCCc3c2cccc3[C@H](C)CCCC(C)(C)O)C[C@H]1O` [compound 6, (1R,3S,1′′R)-5-[5′-(5′′-Hydroxy-1′′,5′′-dimethylhexyl)-3′,4′-dihydro-naphthalen-1′-ylethynyl]-4-methyl-2-methylene-cyclohex-4-ene-1,3-diol], for which the pIC50 is 7.55.
